Among the data in article PMC8041284, “Tunable Methacrylamides for Covalent Ligand Directed Release Chemistry” (Journal of the American Chemical Society, 2021) are inhibition values, retold here.

The experiment deals with BTK (Homo sapiens, UniProt Q06187). Description: biochemical. To be noted: read-out: BTK inhibition (%), 0.75 uM BTK, […] probe 3l, 15 min preincubation.
BTK, sequence (Q06187 402-655 limits assumed): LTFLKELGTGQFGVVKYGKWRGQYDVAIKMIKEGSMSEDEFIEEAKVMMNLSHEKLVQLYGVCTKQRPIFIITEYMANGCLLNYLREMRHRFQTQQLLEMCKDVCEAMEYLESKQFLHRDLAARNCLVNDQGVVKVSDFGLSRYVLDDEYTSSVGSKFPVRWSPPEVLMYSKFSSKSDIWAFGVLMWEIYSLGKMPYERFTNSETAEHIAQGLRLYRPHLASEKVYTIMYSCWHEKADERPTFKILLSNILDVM

Broadly, the inhibition is the drop in the measured response relative to a control, in per cent. Regarding `O=C(c1ccc(/C=C/c2n[nH]c3ccccc23)cc1)N1CCNCC1` [PCM-0095209], the inhibition at 10 µM came out at 46.2%.
With `CCCN1CCO[C@@H]2c3cc(O)ccc3OC[C@H]21` [PCM-0095211], the inhibition at 10 µM was -8.6%.
Under `CCC[C@@H]1C[C@@H](C(=O)N[C@@H]([C@H]2O[C@H](SC)[C@H](OP(=O)(O)O)[C@@H](O)[C@H]2O)[C@H](C)Cl)N(C)C1` [PCM-0095212] stands -5.1%; under `C=CCc1cc(OC)c(O)c(C(=O)NCCO)c1` [PCM-0095214], -16.3%; under `Nc1ccn([C@@H]2O[C@H](CO)[C@@H](O)[C@H]2O)c(=O)n1` [PCM-0095215], -15.6%.
In the case of `O=c1cc(O)c(Cl)c[nH]1` [PCM-0095217], the inhibition at 10 µM is -3.9%.
Consider `CCN(CC)Cc1ccc2cc(COC(=O)Nc3ccc(C(=O)NO)cc3)ccc2c1` [PCM-0095219], for which the inhibition at 10 µM is -10.1%.
Turning to `CN(C)Cc1ccc(-c2nc3cccc4c3n2CCNC4=O)cc1` [PCM-0095220], the inhibition at 10 µM amounted to 4.8%.
For `Cc1cc(Nc2cc(CN3CCOCC3)c3nc(C)c(Cc4ccc(Cl)cc4F)n3n2)n[nH]1` [PCM-0095222], the inhibition at 10 µM is 56.6%.
`CC[C@H](c1ccc(O)cc1)[C@@H](CC)c1ccc(O)cc1` [PCM-0095223]: the inhibition at 10 µM is -11.7%.
Regarding `CC(C)C[C@H](NC(=O)CNC(=O)c1cc(Cl)ccc1Cl)B(O)O` [PCM-0095224], the inhibition at 10 µM amounted to 5.4%.
Take `CC(C)C[C@H](NC(=O)CNC(=O)c1cc(Cl)ccc1Cl)B1OC(=O)CC(CC(=O)O)(C(=O)O)O1` (some centres unmarked) [PCM-0095225]: the inhibition at 10 µM is -2.1%.
For the compound `Cc1ccc(C(=O)N(CCCN)[C@@H](c2oc3cc(Cl)ccc3c(=O)c2Cc2ccccc2)C(C)C)cc1` [PCM-0095226], the inhibition at 10 µM was -2.3%.
As for `CCC[C@@H]1C[C@@H](C(=O)N[C@@H]([C@H]2O[C@H](SC)[C@H](O)[C@@H](O)[C@H]2O)[C@@H](C)O)N(C)C1` [PCM-0095227], the inhibition at 10 µM was -4.7%.
Under `C=CC(=O)Nc1ccc2ncnc(Nc3ccc(OCc4cccc(F)c4)c(Cl)c3)c2c1` [PCM-0095229] stands 110%.
Consider `CNC1CCCN(c2c(F)cc3c(=O)c(C(=O)O)cn(C4CC4)c3c2OC)C1` (centres unmarked) [PCM-0095230], for which the inhibition at 10 µM is -5.4%.
Consider `O=C(C[S+]([O-])Cc1ccco1)NC/C=C\COc1cc(CN2CCCCC2)ccn1` (centres unmarked) [PCM-0095231], for which the inhibition at 10 µM was -9%.
As to `CCOC(=O)c1c(C)n(C)c2ccc(O)cc12` [PCM-0095233], the inhibition at 10 µM was -14%.
In the case of `Cc1cccc(-c2[nH]c(C(C)(C)C)nc2-c2ccc3c(c2)OCO3)n1` [PCM-0095234], the inhibition at 10 µM is 9.3%.
`CC(C)c1cc(C(C)C)c(CC(=O)NS(=O)(=O)Oc2c(C(C)C)cccc2C(C)C)c(C(C)C)c1` [PCM-0095235]: the inhibition at 10 µM was determined as 56%.
As for `CNC(=O)CN1CCC(Oc2cc3c(Nc4cccc(Cl)c4F)ncnc3cc2OC)CC1` [PCM-0095236], the inhibition at 10 µM stood at 23.4%.
`C[C@@H](Oc1cc(-n2cnc3ccc(CN4CCN(C)CC4)cc32)sc1C(N)=O)c1ccccc1C(F)(F)F` [PCM-0095237]: the inhibition at 10 µM was found to be 0.7%.
Regarding `CN1CCC(CNc2ccc3ncc(-c4cccc(OC(F)(F)F)c4)n3n2)CC1` [PCM-0095238], the inhibition at 10 µM was determined as 45.5%.
Under `CC(C)C1CCC(C(=O)N[C@H](Cc2ccccc2)C(=O)O)CC1` (some centres unmarked) [PCM-0095239] stands -4.7%.
To `Nc1nccc(Oc2ccc(NC(=O)c3c[nH]cc(-c4ccc(F)cc4)c3=O)cc2F)c1Cl` [PCM-0095240] belongs 68.3%; to `Cc1ccc(C(=O)Nc2cccc(C(F)(F)F)c2)cc1Nc1nc(-c2cccnc2)nc2c1cnn2C` [PCM-0095241], 4.8%.
With `C#Cc1cccc(Nc2ncnc3cc(OCCOC)c(OCCO)cc23)c1` [PCM-0095242], the inhibition at 10 µM was found to be 31%.
For the compound `CCOC(=O)[C@H](CCc1ccccc1)N[C@@H](C)C(=O)N1Cc2cc(OC)c(OC)cc2C[C@H]1C(=O)O` [PCM-0095243], the inhibition at 10 µM is -6.2%.
With `CCCC(=O)OCOC(=O)C1=C(C)NC(C)=C(C(=O)OC)C1c1cccc(Cl)c1Cl` (centres unmarked) [PCM-0095244], the inhibition at 10 µM is 18.7%.
In the case of `Cc1ccccc1-n1c(Cn2ncc3c(N)ncnc32)nc2cccc(C)c2c1=O` [PCM-0095248], the inhibition at 10 µM turned out to be 4.1%.
`Cc1cc(Nc2nc(N[C@@H](C)c3ccc(F)cc3)c(C#N)cc2F)n[nH]1` [PCM-0095250]: the inhibition at 10 µM is 99.3%.
Regarding `C[C@H](NC(=O)Cc1cc(F)cc(F)c1)C(=O)N[C@H](C(=O)OC(C)(C)C)c1ccccc1` [PCM-0095251], the inhibition at 10 µM was -29%.
For the compound `FC(F)(F)c1ccc(/C=C/c2nc(COc3ccc(CCCCn4ccnn4)cc3)co2)cc1` [PCM-0095252], the inhibition at 10 µM was 13.1%.
In the case of `N#CCNC(=O)c1ccc(-c2ccnc(Nc3ccc(N4CCOCC4)cc3)n2)cc1` [PCM-0095254], the inhibition at 10 µM stood at 16.6%.
For the compound `COc1cc2c(cc1OC)CC(=O)N(CCCN(C)C[C@H]1Cc3cc(OC)c(OC)cc31)CC2` [PCM-0095255], the inhibition at 10 µM was -3.1%.
For the compound `Cc1cccc(Cc2cnc[nH]2)c1C` [PCM-0095257], the inhibition at 10 µM is -20.2%.
Regarding `COC(c1ccccc1)(c1ccccc1)[C@H](Oc1nc(C)cc(C)n1)C(=O)O` [PCM-0095259], the inhibition at 10 µM was 10.9%.
Regarding `C=C(c1ccc(C(=O)O)cc1)c1cc2c(cc1C)C(C)(C)CCC2(C)C` [PCM-0095260], the inhibition at 10 µM stood at 14%.
For `CCOC(=O)[C@H](CCc1ccccc1)N[C@H]1CS[C@H](c2cccs2)CN(CC(=O)O)C1=O` [PCM-0095261], the inhibition at 10 µM is -1.6%.
Turning to `CN(C)CCOc1ccc(-c2nc(-c3ccc4c(c3)CCC4=NO)c(-c3ccncc3)[nH]2)cc1` [PCM-0095262], the inhibition at 10 µM was -2.1%.
Consider `N#CC1(c2ccc(NC(=O)c3cccnc3NCc3ccncc3)cc2)CCCC1` [PCM-0095263], for which the inhibition at 10 µM stood at 2.8%.
As for `CC[C@H](Nc1ncnc2nc[nH]c12)c1nc2cccc(F)c2c(=O)n1-c1ccccc1` [PCM-0095266], the inhibition at 10 µM was -5.5%.
`Cc1cccc(-c2nn3c(c2-c2ccnc4ccc(C(N)=O)cc24)CCC3)n1` [PCM-0095269]: the inhibition at 10 µM came to 11.7%.
To `CNC(=O)c1cc(COc2nnc(Nc3ccc(Cl)cc3)c3ccoc23)ccn1` [PCM-0095270] belongs 15.2%; to `CCCC(=O)O` [PCM-0095272], 0%; to `COc1cc2c(cc1Cc1cccc(Cl)c1F)c(=O)c(C(=O)O)cn2[C@H](CO)C(C)C` [PCM-0095274], 31.9%.
As to `CN1C(=O)COc2c(C(=O)NC3CN4CCC3CC4)cc(Cl)cc21` (centres unmarked) [PCM-0095275], the inhibition at 10 µM was -7.7%.
With `Cc1nnc(C(=O)NC(C)(C)c2nc(C(=O)NCc3ccc(F)cc3)c(O)c(=O)n2C)o1` [PCM-0095277], the inhibition at 10 µM is 4.7%.
With `CC[C@@H]1C(=O)N(C)c2cnc(Nc3ccc(C(=O)NC4CCC(N5CCN(CC6CC6)CC5)CC4)cc3OC)nc2N1C(C)C` (some centres unmarked) [PCM-0095279], the inhibition at 10 µM is -14.5%.
To `COc1ccc(COc2cc3oc(=O)c4cc(C(C)O)ccc4c3cc2OC)cc1` (centres unmarked) [PCM-0095280] belongs 15.2%; to `CC(C)C(=O)Oc1ccc(CO)cc1[C@H](CCN(C(C)C)C(C)C)c1ccccc1` [PCM-0095281], -0.8%; to `CCC[C@H](NC(=O)/C(C#N)=C/c1cccc(Br)n1)c1ccccc1` [PCM-0095282], 24.8%.
In the case of `CC(C)[C@H](C(=O)Nc1ccc(C(=O)NO)cc1)c1ccccc1` [PCM-0095283], the inhibition at 10 µM was found to be 17.1%.
As to `Nc1cc(C(F)(F)F)c(-c2cc(N3CCOCC3)nc(N3CCOCC3)n2)cn1` [PCM-0095286], the inhibition at 10 µM was -4.1%.
In the case of `O=C(O)c1ccc2c(c1)nc(Nc1cccc(Cl)c1)c1ccncc12` [PCM-0095287], the inhibition at 10 µM was 13.1%.
Consider `O=C1c2cccc(O)c2C(=O)c2c(O)cc(CO)cc21` [PCM-0095288], for which the inhibition at 10 µM came to 16.3%.
Turning to `O=C1c2ccccc2C(=O)c2c1ccc(O)c2O` [PCM-0095289], the inhibition at 10 µM was determined as 49.8%.
In the case of `COc1ccc(C[C@@H]2c3cc(OC)c(OC)cc3CC[N@+]2(C)CCC(=O)OCCCCCOC(=O)CC[N@@+]2(C)CCc3cc(OC)c(OC)cc3[C@H]2Cc2ccc(OC)c(OC)c2)cc1OC` [PCM-0095290], the inhibition at 10 µM is -8.6%.
As to `COc1ccc(Cn2ccc3ccc(C(=O)NO)cc32)cc1` [PCM-0095291], the inhibition at 10 µM was 33.5%.
Consider `CCCCc1oc2ccc(NS(C)(=O)=O)cc2c1C(=O)c1ccc(OCCCN(CCCC)CCCC)cc1` [PCM-0095292], for which the inhibition at 10 µM is 62.3%.
For `CCCCOc1c(C(=O)c2c(F)cc(C)cc2F)cnc2n[nH]cc12` [PCM-0095294], the inhibition at 10 µM is -2.1%.
In the case of `CCOCC(O)COc1ccc(NC(=O)CC[S+](C)C)cc1` (centres unmarked) [PCM-0095295], the inhibition at 10 µM amounted to 0%.
In the case of `CCOC(=O)c1c(CSc2ccccc2)n(C)c2cc(Br)c(O)c(CN(C)C)c12` [PCM-0095296], the inhibition at 10 µM was determined as 10.1%.
Consider `OC[C@H]1OC(O)[C@H](O)[C@@H](O)[C@@H]1O` (some centres unmarked) [PCM-0095297], for which the inhibition at 10 µM was -10.1%.
Regarding `CC(=O)O[C@@]12CO[C@@H]1C[C@H](O)[C@@]1(C)C(=O)[C@H](O)C3=C(C)[C@@H](O)C[C@@](O)([C@@H](OC(=O)c4ccccc4)[C@H]21)C3(C)C` [PCM-0095302], the inhibition at 10 µM turned out to be 9.3%.
`CCCCCCCCCCCCCCCC(=O)OC[C@H](O)[C@H]1OC(=O)C(O)=C1O` [PCM-0095304]: the inhibition at 10 µM was -34.2%.
For `CC(C)(O)CC[C@@H](O)[C@](C)(O)[C@H]1CC[C@@]2(O)C3=CC(=O)[C@@H]4C[C@@H](O)[C@@H](O)C[C@]4(C)[C@H]3CC[C@]12C` [PCM-0095305], the inhibition at 10 µM amounted to 6.2%.
Consider `C1=C2CCCN[C@H]2[C@@H]2C[C@H]1[C@H]1CCCCN1C2` [PCM-0095306], for which the inhibition at 10 µM is -2.6%.
For `COc1ccc([C@H]2CNC(=O)C2)cc1OC1CCCC1` [PCM-0095307], the inhibition at 10 µM turned out to be 7%.
Regarding `Cc1c(-c2ccc(O)cc2)n(Cc2ccc(OCCN3CCCCCC3)cc2)c2ccc(O)cc12` [PCM-0095308], the inhibition at 10 µM was 84%.
Turning to `N[C@@H](CSCCCO)C(=O)O` [PCM-0095309], the inhibition at 10 µM is 17.9%.
